From ChEMBL document CHEMBL1137071, “Phenyl thiazolyl urea and carbamate derivatives as new inhibitors of bacterial cell-wall biosynthesis” (Bioorg Med Chem Lett, 2004)
Converted amounts (≈) assume the structure as drawn. Each block holds one compound with its values, some of them ahead of it.

Key:
Format in all cases: functional
Staphylococcus aureus [1] = assay: Antimicrobial activity against Staphylococcus aureus GC 4543 (MSSA); Not active; 0.5-128
Streptococcus pneumoniae [2] = assay: Antimicrobial activity against Streptococcus pneumoniae GC1894 (PRSP); Not active; 0.5-128
Enterococcus faecalis [3] = assay: Antimicrobial activity against Enterococcus faecalis GC 2242 (VRE); Not active; 0.5-128
[4] = Inhibitory activity against MurB
Staphylococcus aureus [5] = assay: Antimicrobial activity against Staphylococcus aureus GC 2216 (ATCC); Not active; 0.5-128
Escherichia coli [6] = assay: Antimicrobial activity against Escherichia coli GC 4559; Not active
Staphylococcus [7] = assay: Antimicrobial activity against MSCNS (methicillin-susceptible coagulase-negative staphylococci) GC 646; Not active; 0.5-128
Streptococcus pneumoniae [8] = assay: Antimicrobial activity against Streptococcus pneumoniae GC1894 (PRSP) in the presence of 4% bovine serum albumin; Not active; 0.5-128
Escherichia coli [9] = assay: Antimicrobial activity against Escherichia coli GC 4560; Not active; 0.5-128
Staphylococcus aureus [10] = assay: Antimicrobial activity against Staphylococcus aureus GC 1131 (MRSA); Not active; 0.5-128
Enterococcus faecalis [11] = assay: Antimicrobial activity against Enterococcus faecalis GC 4555 (ATCC); Not active; 0.5-128
Enterococcus faecalis [12] = assay: Antimicrobial activity against Enterococcus faecalis GC 4555 (ATCC); Not active; 32-128
Staphylococcus aureus [13] = assay: Antimicrobial activity against Staphylococcus aureus GC 2216 (ATCC); Not active; 32-128
Streptococcus pneumoniae [14] = assay: Antimicrobial activity against Streptococcus pneumoniae GC1894 (PRSP) in the presence of 4% bovine serum albumin; Not active; 32-128
Staphylococcus aureus [15] = assay: Antimicrobial activity against Staphylococcus aureus GC 4543 (MSSA); Not active; 32-128
Escherichia coli [16] = assay: Antimicrobial activity against Escherichia coli GC 4559; Not active; 32-128
Enterococcus faecalis [17] = assay: Antimicrobial activity against Enterococcus faecalis GC 2242 (VRE); Not active; 32-128
Streptococcus pneumoniae [18] = assay: Antimicrobial activity against Streptococcus pneumoniae GC1894 (PRSP); Not active; 32-128
Staphylococcus [19] = assay: Antimicrobial activity against MSCNS (methicillin-susceptible coagulase-negative staphylococci) GC 646; Not active; 32-128
Escherichia coli [20] = assay: Antimicrobial activity against Escherichia coli GC 4560; Not active; 32-128
Staphylococcus aureus [21] = assay: Antimicrobial activity against Staphylococcus aureus GC 1131 (MRSA); Not active; 32-128
Escherichia coli [22] = assay: Antimicrobial activity against Escherichia coli GC 4559; Not active; 16->128
Enterococcus faecalis [23] = assay: Antimicrobial activity against Enterococcus faecalis GC 2242 (VRE); Not active; 16->128
Staphylococcus [24] = assay: Antimicrobial activity against MSCNS (methicillin-susceptible coagulase-negative staphylococci) GC 646; Not active; 16->128
Staphylococcus aureus [25] = assay: Antimicrobial activity against Staphylococcus aureus GC 4543 (MSSA); Not active; 16->128
Staphylococcus aureus [26] = assay: Antimicrobial activity against Staphylococcus aureus GC 2216 (ATCC); Not active; 16->128
Streptococcus pneumoniae [27] = assay: Antimicrobial activity against Streptococcus pneumoniae GC1894 (PRSP) in the presence of 4% bovine serum albumin; Not active; 16->128
Enterococcus faecalis [28] = assay: Antimicrobial activity against Enterococcus faecalis GC 4555 (ATCC); Not active; 16->128
Escherichia coli [29] = assay: Antimicrobial activity against Escherichia coli GC 4560; Not active; 16->128
Staphylococcus aureus [30] = assay: Antimicrobial activity against Staphylococcus aureus GC 1131 (MRSA); Not active; 16->128
Streptococcus pneumoniae [31] = assay: Antimicrobial activity against Streptococcus pneumoniae GC1894 (PRSP); Not active; 16->128
Streptococcus pneumoniae [32] = assay: Antimicrobial activity against Streptococcus pneumoniae GC1894 (PRSP); Not active; 0.5-8
Streptococcus pneumoniae [33] = assay: Antimicrobial activity against Streptococcus pneumoniae GC1894 (PRSP) in the presence of 4% bovine serum albumin; Not active; 0.5-8
Enterococcus faecalis [34] = assay: Antimicrobial activity against Enterococcus faecalis GC 2242 (VRE); Not active; 0.5-8
Staphylococcus aureus [35] = assay: Antimicrobial activity against Staphylococcus aureus GC 1131 (MRSA); Not active; 0.5-8
Escherichia coli [36] = assay: Antimicrobial activity against Escherichia coli GC 4560; Not active; 0.5-8
Staphylococcus aureus [37] = assay: Antimicrobial activity against Staphylococcus aureus GC 2216 (ATCC); Not active; 0.5-8
Enterococcus faecalis [38] = assay: Antimicrobial activity against Enterococcus faecalis GC 4555 (ATCC); Not active; 0.5-8
Staphylococcus aureus [39] = assay: Antimicrobial activity against Staphylococcus aureus GC 4543 (MSSA); Not active; 0.5-8
Staphylococcus [40] = assay: Antimicrobial activity against MSCNS (methicillin-susceptible coagulase-negative staphylococci) GC 646; Not active; 0.5-8
Escherichia coli [41] = assay: Antimicrobial activity against Escherichia coli GC 4559; Not active; 0.5-8
Staphylococcus aureus [42] = assay: Antimicrobial activity against Staphylococcus aureus GC 2216 (ATCC); Not active; 1-4
Escherichia coli [43] = assay: Antimicrobial activity against Escherichia coli GC 4560; Not active; 1-4
Staphylococcus aureus [44] = assay: Antimicrobial activity against Staphylococcus aureus GC 4543 (MSSA); Not active; 1-4
Escherichia coli [45] = assay: Antimicrobial activity against Escherichia coli GC 4559; Not active; 1-4
Staphylococcus [46] = assay: Antimicrobial activity against MSCNS (methicillin-susceptible coagulase-negative staphylococci) GC 646; Not active; 1-4
Streptococcus pneumoniae [47] = assay: Antimicrobial activity against Streptococcus pneumoniae GC1894 (PRSP) in the presence of 4% bovine serum albumin; Not active; 1-4
Staphylococcus aureus [48] = assay: Antimicrobial activity against Staphylococcus aureus GC 1131 (MRSA); Not active; 1-4
Enterococcus faecalis [49] = assay: Antimicrobial activity against Enterococcus faecalis GC 2242 (VRE); Not active; 1-4
Enterococcus faecalis [50] = assay: Antimicrobial activity against Enterococcus faecalis GC 4555 (ATCC); Not active; 1-4
Streptococcus pneumoniae [51] = assay: Antimicrobial activity against Streptococcus pneumoniae GC1894 (PRSP); Not active; 1-4

Compound: COC(=O)c1sccc1NC(=O)Nc1ccc(Cl)c(Cl)c1
MIC (Staphylococcus aureus [1]): > 128 µg/mL
MIC (Streptococcus pneumoniae [2]): > 128 µg/mL
MIC (Enterococcus faecalis [3]): > 128 µg/mL
IC50 [4]: 18 µg/mL (≈ 52.1 µM)
MIC (Staphylococcus aureus [5]): > 128 µg/mL
MIC (Escherichia coli [6]): > 128 µg/mL
MIC (Staphylococcus [7]): > 128 µg/mL
MIC (Streptococcus pneumoniae [8]): > 128 µg/mL
MIC (Escherichia coli [9]): > 128 µg/mL
MIC (Staphylococcus aureus [10]): > 128 µg/mL
MIC (Enterococcus faecalis [11]): > 128 µg/mL

Compound: O=C(Nc1ccc(Cl)c(Cl)c1)Nc1nncs1
MIC (Escherichia coli [22]): > 128 µg/mL
IC50 [4]: > 25 µg/mL
MIC (Enterococcus faecalis [23]): > 128 µg/mL
MIC (Staphylococcus [24]): > 128 µg/mL
MIC (Staphylococcus aureus [25]): > 128 µg/mL
MIC (Staphylococcus aureus [26]): > 128 µg/mL
MIC (Streptococcus pneumoniae [27]): > 128 µg/mL
MIC (Enterococcus faecalis [28]): > 128 µg/mL
MIC (Escherichia coli [29]): > 128 µg/mL
MIC (Staphylococcus aureus [30]): > 128 µg/mL
MIC (Streptococcus pneumoniae [31]): > 128 µg/mL

Compound: COC(=O)c1cnn(C)c1NC(=O)Nc1ccc(Cl)c(Cl)c1
MIC (Staphylococcus aureus [42]): 4 µg/mL (≈ 11.7 µM)
MIC (Escherichia coli [43]): 4 µg/mL (≈ 11.7 µM)
IC50 [4]: 23 µg/mL (≈ 67 µM)
MIC (Staphylococcus aureus [44]): 4 µg/mL (≈ 11.7 µM)
MIC (Escherichia coli [45]): 4 µg/mL (≈ 11.7 µM)
MIC (Staphylococcus [46]): 4 µg/mL (≈ 11.7 µM)
MIC (Streptococcus pneumoniae [47]): 4 µg/mL
MIC (Staphylococcus aureus [48]): 4 µg/mL (≈ 11.7 µM)
MIC (Enterococcus faecalis [49]): 4 µg/mL (≈ 11.7 µM)
MIC (Enterococcus faecalis [50]): 4 µg/mL (≈ 11.7 µM)
MIC (Streptococcus pneumoniae [51]): 4 µg/mL (≈ 11.7 µM)

Other lines, results leading:

MIC (Enterococcus faecalis [12]): > 128 µg/mL
IC50 [4]: > 25 µg/mL
MIC (Staphylococcus aureus [13]): > 128 µg/mL
MIC (Streptococcus pneumoniae [14]): > 128 µg/mL
MIC (Staphylococcus aureus [15]): > 128 µg/mL
MIC (Escherichia coli [16]): > 128 µg/mL
MIC (Enterococcus faecalis [17]): > 128 µg/mL
MIC (Streptococcus pneumoniae [18]): > 128 µg/mL
MIC (Staphylococcus [19]): > 128 µg/mL
MIC (Escherichia coli [20]): > 128 µg/mL
MIC (Staphylococcus aureus [21]): > 128 µg/mL
Compound: O=C(Nc1ccc(Cl)c(Cl)c1)Nc1cccc2cccnc12

MIC (Streptococcus pneumoniae [32]): 8 µg/mL (≈ 28.4 µM)
MIC (Streptococcus pneumoniae [33]): 8 µg/mL
MIC (Enterococcus faecalis [34]): 8 µg/mL (≈ 28.4 µM)
MIC (Staphylococcus aureus [35]): 8 µg/mL (≈ 28.4 µM)
IC50 [4]: 17 µg/mL (≈ 60.3 µM)
MIC (Escherichia coli [36]): 8 µg/mL (≈ 28.4 µM)
MIC (Staphylococcus aureus [37]): 8 µg/mL (≈ 28.4 µM)
MIC (Enterococcus faecalis [38]): 8 µg/mL (≈ 28.4 µM)
MIC (Staphylococcus aureus [39]): 8 µg/mL (≈ 28.4 µM)
MIC (Staphylococcus [40]): 8 µg/mL (≈ 28.4 µM)
MIC (Escherichia coli [41]): 8 µg/mL (≈ 28.4 µM)
Compound: O=C(Nc1ccc(Cl)c(Cl)c1)Nc1ccccn1
